# Results: patent publication US9969762B2
# Read-outs that look alike come from different tables or passages of the source.
# What was measured:
# [1] = test system: Pectobacterium atrosepticum; assay: Antibacterial activity (MIC and MBC) in TY medium; format: cell-based; conditions: 36 h of culture at 30° C.
# [2] = test system: Agrobacterium tumefaciens; assay: Antibacterial activity (MIC and MBC) in TY medium; format: cell-based; conditions: 36 h of culture at 30° C.
# Dickeya dianthicola = assay: Antibacterial activity (MIC and MBC) in TY medium; format: cell-based; conditions: Dickeya dianthicola, 36 h of culture at 30° C.
# Phytophthora infestans = assay: microbe, parasite or virus in culture; format: cell-based; conditions: Phytophthora infestans, 144 h, read-out: Average diameters of inhibition zone
# [3] = test system: Agrobacterium tumefaciens, Pectobacterium atrosepticum and Dickeya dianthicola bacteria; assay: Antibacterial activity, summary statements over the bacteria tested; format: cell-based
# Fusarium roseum = conditions: compound in methanol, more than 10 days at 20° C.
# Procedure: (§1) The antifungal activity of the N-alkyl-glycosyl(di)amine derivatives of formula (I) and of the N-alkyl-glycamine derivatives of formula (III) synthesized according to the process of the invention was evaluated on two fungi: Fusarium roseum and Fusarium sambucinum.
# (§2) For this, 500 μl of solution comprising the test derivative, dissolved in DMSO or methanol, are mixed with 19.5 ml of malt agar medium (Sigma aldrich) allowing the growth of these two Fusarium isolates. The test derivative is prepared in 2 ml of methanol, then mixed with 18 ml of malt agar medium (Sigma aldrich). A spot of 10 μl of culture of each Fusarium is then deposited at the center of each Petri dish. After 10 days of incubation at 20° C., the growth diameters are measured.
# (§3) The range of concentrations of N-alkyl-glycosyl(di)amine derivatives of formula (I) tested ranges from 0.1 to 25 μmol/ml.
# (§4) The Fusarium growth on media containing the various molecules is compared with that obtained only with DMSO or methanol.
# (§5) The same antifungal evaluation protocol as the one previously described with the compound Ij was applied for other N-alkyl-glycosyl(di)amine derivatives of formula (I) and N-alkyl-glycamine derivatives of formula (III) at concentrations ranging from 1 to 20 μmol/ml.
# (§6) 2 ml of solution comprising the test compound dissolved in methanol are mixed with 18 ml of agar malt medium (Sigma aldrich) allowing the growth of these two Fusarium isolates. A spot of 10 μl of culture of each Fusarium is then deposited at the center of each Petri dish. After more than 10 days of incubation at 20° C., the growth diameters are measured.
# Fusarium sambucinum = conditions: compound in methanol, more than 10 days at 20° C.
# Procedure: as §1, §2, §3, §4, §5, §6
smiles,measurement,setting,value
CCCCCNC1OC(C)[C@H](O)C(O)C1O (stereo partly shown) [compound Ie],MIC,[1]; TY medium,16 µg/mL
same,MBC,[1]; plated on TY agar,16 µg/mL
same,MIC,[2]; TY medium,4 µg/mL
same,MBC,[2]; plated on TY agar,8 µg/mL
same,MIC,"Dickeya dianthicola; TY medium, read-out: MIC",16 µg/mL
same,MBC,"Dickeya dianthicola; plated on TY agar, read-out: MBC",16 µg/mL
same,zone of inhibition at 20000 µg/disc,Phytophthora infestans,21 mm
same,bactericidal activity (in words),[3],showed a bactericidal activity
same,inhibition of the growth of the bacteria (in words),"[3]; after 36 h of incubation at 30° C., compared with 4-NPO",inhibition of the growth of the bacteria was observed
same,Inhibition of the growth of the Fusarium roseum fungi,Fusarium roseum; 1 μmol/ml,94%
same,Inhibition of the growth of the Fusarium roseum fungi,Fusarium roseum; 2.5 μmol/ml,96%
same,Inhibition of the growth of the Fusarium roseum fungi,Fusarium roseum; 5 μmol/ml,100%
same,Inhibition of the growth of the Fusarium roseum fungi,Fusarium roseum; 10 μmol/ml,100%
same,Inhibition of the growth of the Fusarium roseum fungi,Fusarium roseum; 20 μmol/ml,100%
same,Inhibition of the growth of the Fusarium sambucinum fungi,Fusarium sambucinum; 1 μmol/ml,95%
same,Inhibition of the growth of the Fusarium sambucinum fungi,Fusarium sambucinum; 2.5 μmol/ml,96%
same,Inhibition of the growth of the Fusarium sambucinum fungi,Fusarium sambucinum; 5 μmol/ml,100%
same,Inhibition of the growth of the Fusarium sambucinum fungi,Fusarium sambucinum; 10 μmol/ml,100%
same,Inhibition of the growth of the Fusarium sambucinum fungi,Fusarium sambucinum; 20 μmol/ml,100%
